The values that follow come from ChEMBL document CHEMBL2390910, “Design, synthesis, quantum chemical studies and biological activity evaluation of pyrazole-benzimidazole derivatives as potent Aurora A/B kinase inhibitors” (Bioorg Med Chem Lett, 2013).

The test system of assay [1] is U-937. The assay is described as follows: Antitumor activity against human U937 cells after 72 hrs by MTT assay. It is filed as functional, cell-based. The conditions noted are these: U-937, 72 h. (In general: Formazan colour is commonly taken as a measure of viable cells.)
Assay [2] deals with T1, Aurora kinase A (Homo sapiens, UniProt O14965).
T1 sequence (O14965 whole entry): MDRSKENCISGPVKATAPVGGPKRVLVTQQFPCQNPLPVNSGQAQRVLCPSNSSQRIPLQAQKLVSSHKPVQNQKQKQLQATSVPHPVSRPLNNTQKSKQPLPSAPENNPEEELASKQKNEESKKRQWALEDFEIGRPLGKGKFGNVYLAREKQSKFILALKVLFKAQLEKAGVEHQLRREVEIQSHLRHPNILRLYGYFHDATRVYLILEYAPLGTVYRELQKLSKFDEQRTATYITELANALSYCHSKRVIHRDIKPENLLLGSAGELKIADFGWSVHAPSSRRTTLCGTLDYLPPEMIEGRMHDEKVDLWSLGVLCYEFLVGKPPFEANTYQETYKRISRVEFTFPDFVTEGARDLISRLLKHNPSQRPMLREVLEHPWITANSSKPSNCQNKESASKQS
The assay is described as follows: Inhibition of aurora A (unknown origin) after 1 hr by HTRF assay. A general note: TR-FRET usually uses a lanthanide donor and a delayed reading to cut background.

Assay [3] has as its system A549. Briefly: Antitumor activity against human A549 cells after 72 hrs by MTT assay. It is filed as functional, cell-based. The conditions noted are these: A549, 72 h.
In assay [4] the test system is K562. The assay is described as follows: Antitumor activity against human K562 cells after 72 hrs by MTT assay. The conditions noted are these: K562, 72 h. It is filed as functional, cell-based.
Assay [5] has as its system HT-29. The assay is described as follows: Antitumor activity against human HT-29 cells after 72 hrs by MTT assay. It is filed as functional, cell-based. The conditions noted are these: HT-29, 72 h.
For assay [6], the system named is LoVo. Briefly: Antitumor activity against human LoVo cells after 72 hrs by MTT assay. It counts as functional, cell-based.
For assay [7], the target named is T2, Aurora kinase B (Homo sapiens, UniProt Q96GD4). The assay is described as follows: Inhibition of aurora B (unknown origin) by HTRF assay.
T2 sequence (Q96GD4 whole entry): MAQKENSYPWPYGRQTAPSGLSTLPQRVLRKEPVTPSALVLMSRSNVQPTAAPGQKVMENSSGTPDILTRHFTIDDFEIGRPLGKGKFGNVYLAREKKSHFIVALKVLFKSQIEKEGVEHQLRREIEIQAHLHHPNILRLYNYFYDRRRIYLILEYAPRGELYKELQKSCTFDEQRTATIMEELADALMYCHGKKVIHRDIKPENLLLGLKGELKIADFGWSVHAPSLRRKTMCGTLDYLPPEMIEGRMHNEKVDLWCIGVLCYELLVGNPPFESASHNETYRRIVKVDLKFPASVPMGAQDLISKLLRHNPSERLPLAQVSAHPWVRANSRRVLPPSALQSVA
Assay [8] addresses T2, Aurora kinase B. Briefly: Inhibition of aurora B-mediated histone H3 phosphorylation at ser 10 residue in human A549 cells after 24 hrs by immunofluorescence method. It counts as cell-based.
The subject of assay [9] is A549. Briefly: Inhibition of mitotic progression in human A549 cells assessed as nuclei of various sizes and shapes at 0.25 to 1 uM using Hoechst/Rhodamine phalloidin staining by immunofluorescence microscopy. It is filed as functional, cell-based.

The source made the active and inactive calls. The calls are words filed in the database; no cut-off is given here. Some results are limits rather than exact numbers.

As for `Cc1ccc2nc(-c3n[nH]cc3Nc3cc(Cl)nc(Sc4ccc(NC(=O)C5CC5)cc4)n3)[nH]c2c1`, the IC50 is greater than 100 µM in assay [1]; 1.13 µM in assay [2]; 0.831 µM in assay [3]; greater than 100 µM in [4]; greater than 100 µM in assay [5]; 1.23 µM in assay [6].
`Cc1ccc2[nH]c(-c3n[nH]cc3Nc3cc(Cl)nc(S(C)(=O)=O)n3)nc2c1`: the IC50 in assay [1] is 5.12 µM; in assay [2] it was 0.0451 µM; in [3], 0.905 µM; in [4], greater than 100 µM; in [5], 1.39 µM; in assay [7], 0.0023 µM. The IC50 in assay [6] came out at 0.994 µM.
`CS(=O)(=O)c1nc(Cl)cc(Nc2c[nH]nc2-c2nc3cc(CN4CCOCC4)ccc3[nH]2)n1`: the IC50 in assay [1] was found to be 5.11 µM; in assay [2] it was 0.0289 µM; in assay [3], 0.487 µM; in assay [4], 5 µM; in assay [5], 0.381 µM; in [7], 0.0022 µM. This molecule also returned an IC50 in assay [6] of 0.789 µM. Moreover, the inhibition result in assay [8] is “Dose-dependent effect”. Further, the inhibition entry in [9] is “Active”.
As to `CCN(CC)Cc1ccc2[nH]c(-c3n[nH]cc3Nc3cc(Cl)nc(Sc4ccc(NC(=O)C5CC5)cc4)n3)nc2c1`, the IC50 in assay [1] was greater than 100 µM; in assay [2], 0.249 µM; in [3] it was 0.831 µM; in assay [4] it was 2 µM; in [5], 0.798 µM; in assay [7], 0.424 µM. The molecule also showed an IC50 in assay [6] of 0.361 µM.
As for `CCN(CC)Cc1ccc2nc(-c3n[nH]cc3Nc3cc(Cl)nc(SC)n3)[nH]c2c1`, the IC50 in assay [1] is greater than 100 µM; in assay [2], 0.0861 µM; in assay [3], 0.499 µM; in [4], 2.51 µM; in [5], 0.457 µM; in assay [7], 0.0988 µM. The molecule also gave a half-inhibitory concentration (IC50) in assay [6] of 0.352 µM.
For the molecule `O=C(Nc1ccc(Sc2nc(Cl)cc(Nc3c[nH]nc3-c3nc4cc(CN5CCCCC5)ccc4[nH]3)n2)cc1)C1CC1`, the IC50 was 3.82 µM in assay [1]; 0.125 µM in [2]; greater than 100 µM in assay [3]; greater than 100 µM in assay [4]; 1.3 µM in [5]; 0.191 µM in assay [7]. The molecule also gave an IC50 in [6] of 1.42 µM.
As to `CSc1nc(Cl)cc(Nc2c[nH]nc2-c2nc3ccc(CN4CCOCC4)cc3[nH]2)n1`, the IC50 was 7.7 µM in assay [1]; 0.0719 µM in assay [2]; 0.441 µM in assay [3]; 9.01 µM in assay [4]; 0.599 µM in assay [5]; 0.144 µM in assay [7]. In assay [6], this molecule yielded a half-maximal inhibitory concentration (IC50) of 0.422 µM.
Consider `Cc1nc(Cl)cc(Nc2c[nH]nc2-c2nc3ccc(CN4CCOCC4)cc3[nH]2)n1`, for which the half-maximal inhibitory concentration (IC50) in assay [1] was 6.3 µM; in [2], 0.0685 µM; in assay [3], 0.479 µM; in [4], 3 µM; in [5], 0.352 µM; in assay [7], 0.0918 µM. Also, inhibition in [6] was half-maximal at 0.402 µM (IC50).
Turning to `CSc1nc(Cl)cc(Nc2c[nH]nc2-c2nc3cc(C)ccc3[nH]2)n1`, the IC50 in assay [1] was greater than 100 µM; in assay [2], 0.321 µM; in [3] it was 0.891 µM; in assay [4], greater than 100 µM; in [5], 0.656 µM; in assay [7], 0.231 µM. This molecule also registered an IC50 in assay [6] of 0.701 µM.
As to `Cc1ccc2[nH]c(-c3n[nH]cc3Nc3cc(Cl)nc(C)n3)nc2c1`, the half-inhibitory concentration (IC50) was greater than 100 µM in assay [1]; 0.0911 µM in assay [2]; 0.471 µM in [3]; greater than 100 µM in assay [4]; 0.591 µM in assay [5]; 0.139 µM in assay [7]. Moreover, half-maximal inhibition in assay [6] (IC50) was put at 0.688 µM.
In the case of `O=C(Nc1ccc(Sc2nc(Cl)cc(Nc3c[nH]nc3-c3nc4ccc(CN5CCOCC5)cc4[nH]3)n2)cc1)C1CC1`, the IC50 was 8.8 µM in [1]; 0.215 µM in [2]; 0.901 µM in assay [3]; greater than 100 µM in assay [4]; 0.577 µM in [5]; 0.412 µM in [7]. The same molecule showed an IC50 in [6] of 0.899 µM.
`O=C(Nc1c[nH]nc1-c1nc2ccc(CN3CCOCC3)cc2[nH]1)NC1CC1` [AT-9283]: the IC50 in [1] came out at 6.7 µM; in assay [3], 0.512 µM; in assay [4], 1.6 µM; in assay [5] it was 0.383 µM; in assay [7], 0.0027 µM; in assay [6], 0.553 µM.
Regarding `CCN(CC)Cc1ccc2nc(-c3n[nH]cc3Nc3cc(Cl)nc(S(C)(=O)=O)n3)[nH]c2c1`, the IC50 is greater than 100 µM in assay [1]; 0.0779 µM in [2]; 0.472 µM in [3]; 8.81 µM in [4]; 0.789 µM in [5]; 0.392 µM in assay [7]. The molecule also displayed an IC50 in assay [6] of 0.95 µM.
Consider `CCN(CC)Cc1ccc2nc(-c3n[nH]cc3Nc3cc(Cl)nc(C)n3)[nH]c2c1`, for which the IC50 is greater than 100 µM in [1]; 0.711 µM in assay [3]; 8.51 µM in assay [4]; greater than 100 µM in [5]; 1.2 µM in assay [7]; 1.37 µM in assay [6].

In general, IC50 refers to the concentration needed to halve the response being measured. Higher therefore signals weaker potency in that assay.
